A short description of series [1]: Inhibition of cupric ion-induced aggregation of amyloid beta (1 to 42) (unknown origin) at compound:amyloid beta (1 to 42):Cu2+ ratio of 2:1:1 measured after 24 hrs by TEM analysis.
Series [2] is described as follows: Cytotoxicity against human SH-SY5Y cells assessed as reduction in cell viability at 100 uM measured after 24 hrs by MTT assay. In kind it is toxicity, cell-based.
The nature of series [3]: Cytotoxicity against human SH-SY5Y cells assessed as reduction in cell viability at 10 and 30 uM measured after 24 hrs by MTT assay. It counts as toxicity, cell-based.
Series [4] in a line: Metal chelating activity assessed as Cu2+-compound complex formation at 40 uM measured after 1 hr by UV-vis spectroscopic analysis. It counts as physicochemical.
The next series deals with T1, Acetylcholinesterase (Rattus norvegicus, UniProt P37136).
T1 sequence (P37136 whole entry): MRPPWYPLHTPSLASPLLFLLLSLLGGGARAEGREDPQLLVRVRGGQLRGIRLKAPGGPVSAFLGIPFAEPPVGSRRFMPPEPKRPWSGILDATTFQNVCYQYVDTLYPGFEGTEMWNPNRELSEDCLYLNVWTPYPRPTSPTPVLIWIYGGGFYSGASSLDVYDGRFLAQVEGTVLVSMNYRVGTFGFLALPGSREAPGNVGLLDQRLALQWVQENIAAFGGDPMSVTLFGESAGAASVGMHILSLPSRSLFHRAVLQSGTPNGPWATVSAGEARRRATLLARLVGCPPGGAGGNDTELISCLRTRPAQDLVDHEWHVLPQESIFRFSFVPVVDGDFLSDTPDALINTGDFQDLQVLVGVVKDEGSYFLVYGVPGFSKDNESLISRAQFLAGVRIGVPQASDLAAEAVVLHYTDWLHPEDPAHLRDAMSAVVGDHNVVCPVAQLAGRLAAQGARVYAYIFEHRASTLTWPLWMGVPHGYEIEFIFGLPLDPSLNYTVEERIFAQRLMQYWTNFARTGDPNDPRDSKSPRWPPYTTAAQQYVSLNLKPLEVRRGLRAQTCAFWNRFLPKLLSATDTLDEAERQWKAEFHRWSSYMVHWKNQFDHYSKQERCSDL
Description: Inhibition of rat cortex AChE using acetylthiocholine iodide as substrate measured after 20 mins by Ellman's method. On the technique in general: DTNB colorimetry detects thiols as they appear.

Series [5] can be described thus: Metal chelating activity assessed as Zn2+-compound complex formation at 40 uM measured after 1 hr by UV-vis spectroscopic analysis. It counts as physicochemical.
Series [6] can be described thus: Permeability of the compound in PBS/EtOH (7:3) buffer measured after 10 hrs by PAMPA assay. In kind it is ADME. To be noted: read-out: Peff.
A short description of series [7]: Solubility of the compound in water measured after 24 hrs by HPLC analysis. In kind it is physicochemical.
Series [8] in a line: Inhibition of rat serum BuChE using butyrylthiocholine as substrate measured after 20 mins by Ellman's method.
Series [9] in a line: Cytotoxicity against human SH-SY5Y cells assessed as reduction in cell viability after 24 hrs in presence of Cu2+ ion by MTT assay. In kind it is toxicity, cell-based. Background: Tetrazolium dyes change colour on reduction, which living cells bring about.
Series [10] in a line: Metal chelating activity assessed as Fe2+-compound complex formation at 40 uM measured after 1 hr by UV-vis spectroscopic analysis. In kind it is physicochemical.
A short description of series [11]: Metal chelating activity assessed as Fe3+-compound complex formation at 40 uM measured after 1 hr by UV-vis spectroscopic analysis. In kind it is physicochemical.
Series [12] in a line: Antioxidant activity assessed as inhibition of Cu2+-induced CCA […] to 7-hydroxy-CCA by measuring decrease in hydroxyl radical production at 10 uM in presence of ascorbate by fluorescence assay.
Another series relates to SH-SY5Y. Put plainly: Neuroprotective activity in human SH-SY5Y cells assessed as protection against Cu2+ induced amyloid-beta (1 to 42) neurotoxicity by measuring increase in cell viability at compound:amyloid-beta (1 to 42):Cu2+ ratio of 2:1:1 after 24 hrs by MTT assay relative to control. In kind it is functional, cell-based.
Series [13] is filed under the species Rattus norvegicus. Put plainly: Inhibition of rat serum BuChE at 40 uM using butyrylthiocholine as substrate measured after 20 mins by Ellman's method relative to control.
A short description of series [14]: Antioxidant activity assessed as trolox equivalent of AAPH radical scavenging activity preincubated for 10 mins followed by AAPH challenge measured every min for 180 mins by ORAC-FL assay. It counts as functional.
Series [15] deals with Mus musculus. Description: Cognitive enhancing effect against scopolamine-induced memory deficit in ICR mouse assessed as reduction in number of errors at 200 mg/kg, po administered through gavage 1 hr before scopolamine-challenge measured after 20 mins by passageway water maze test. In kind it is functional, organism-based.
A short description of series [16]: Inhibition of cupric ion-induced aggregation of amyloid beta (1 to 42) (unknown origin) at 50 uM measured after 24 hrs by dot blot assay.
The test system of series [17] is Mus musculus. Put plainly: Cognitive enhancing effect against scopolamine-induced memory deficit in ICR mouse assessed as reduction in escape latency at 200 mg/kg, po administered through gavage 1 hr before scopolamine-challenge measured after 20 mins by passageway water maze test. In kind it is functional, organism-based.
For series [18], the species on record is Rattus norvegicus. Put plainly: Selectivity index, ratio of IC50 for rat serum BuChE to IC50 for rat cortex AChE.
The nature of series [19]: Ratio of drug level in brain hippocampus to plasma in ICR mouse at 200 mg/kg administered through oral gavage. It counts as ADME, organism-based. To be noted: read-out: logBB (converted).
A short description of series [20]: Plasma concentration in ICR mouse at 200 mg/kg administered through oral gavage measured after 1 hr by LC-MS/MS analysis. In kind it is ADME, organism-based.
The nature of series [21]: Ratio of drug level in brain cortex to plasma in ICR mouse at 200 mg/kg administered through oral gavage. It counts as ADME, organism-based. As to conditions: read-out: logBB (converted).
The nature of series [22]: Drug uptake in ICR mouse brain cortex at 200 mg/kg administered through oral gavage measured after 1 hr by LC-MS/MS analysis. As to conditions: read-out: Drug uptake. In kind it is ADME, organism-based.
Series [23] in a line: Drug uptake in ICR mouse brain hippocampus at 200 mg/kg administered through oral gavage measured after 1 hr by LC-MS/MS analysis. It counts as ADME, organism-based. As to conditions: read-out: Drug uptake.

In brackets after ≈: the same amount, converted by molar mass. Activity calls are given as the source filed them. The rule behind the calls is not given here. Bounds are passed on as bounds.

This note sets out measurements from ChEMBL document CHEMBL3856234, “Development of Multifunctional Pyrimidinylthiourea Derivatives as Potential Anti-Alzheimer Agents” (J Med Chem, 2016).

As a reminder, the inhibition is how much of the control response was suppressed. By IC50 is commonly meant the concentration needed to halve the response being measured. Read a low IC50 as inhibition by little substance. Broadly, the solubility is the dissolved amount per volume that the medium holds. Lower therefore signals a poorly soluble substance.

As to `Oc1c(I)cc(Cl)c2cccnc12`, in series [1], the inhibition entry was “Active”.

On to `COc1cc2c(cc1OC)C(=O)C(CC1CCN(Cc3ccccc3)CC1)C2` (stereo unspecified) [DONEPEZIL], for which the Activity entry in series [2] is recorded as “Toxic”; in [3] it was “Non-Toxic”.

In the case of `CCCN(CCC)Cc1cn(-c2cc(NC(=S)NCC)ncn2)cn1` [listing 1 of 2 here], the Activity entry in series [4] is listed as “Active”; in series [5] it was “Active”; in [9], “Non-Toxic”; in series [10] it was “Active”; in series [2], “Toxic”; in series [3], “Non-Toxic”. For the same compound, the result in series [11] was Active. Further, the results for the IC50 (on Acetylcholinesterase; in series [8]) were 204 nM and > 40 µM, respectively. In series [6], the Papp at 10 h was determined as 7.5 ×10⁻⁶ cm/s. In series [7], the solubility at 24 h was determined as 58 µg/mL (≈ 160 µM).

With `CCNC(=S)Nc1cc(-n2cnc(CN3CCCC3)c2)ncn1` [listing 1 of 2 here], the Activity entry is reported as “Active” in [4]; “Active” in series [5]; “Non-Toxic” in [9]; “Active” in series [10]; “Toxic” in series [2]; “Non-Toxic” in series [3]. Further, the outcome in [11] was Active. Also, the IC50 is 67 nM on Acetylcholinesterase and > 40 µM in series [8]. In series [6], the Papp at 10 h is 1.15 ×10⁻⁶ cm/s. In series [7], this compound gave a solubility at 24 h of 340 µg/mL (≈ 1030 µM).

Take `CCCN(CCC)Cc1cn(-c2cc(NC(=S)NCC)ncn2)cn1` [listing 2 of 2 here]: the inhibition entry in [12], in series [1] and in series [16] was “Active” throughout. Also, the outcome in the series on SH-SY5Y, with Mus musculus [15] and in the series with Mus musculus [17] was Active. This compound gave an inhibition in the series listed under Rattus norvegicus [13] of 32.8%. Besides, the Activity (umolequiv/umol) in series [14] was determined as 1.28. The Ratio IC50 in the series listed under Rattus norvegicus [18] was > 196.

For `CCNC(=S)Nc1cc(-n2cnc(CN(C)Cc3ccccc3)c2)ncn1`, the IC50 was determined as 181 nM against Acetylcholinesterase and 15.2 µM in series [8]. Besides, the Papp at 10 h in series [6] is 8.8 ×10⁻⁶ cm/s. Moreover, the solubility at 24 h in series [7] is 58 µg/mL (≈ 152 µM).

For the compound `c1cc(-n2cnc(CN3CCCC3)c2)ncn1`, the outcome in series [4], in series [5], in [10] and in [11] was Active. Also, in [14], the Activity (umolequiv/umol) was -0.01.

Consider `CCNC(=S)Nc1cc(-n2cnc(CN3CCCC3)c2)ncn1` [listing 2 of 2 here], for which the inhibition result in [12], in [1] and in [16] was “Active” throughout. The outcome in the series with SH-SY5Y was Active. This compound also gave an inhibition in the series filed under Rattus norvegicus [13] of 33.5%. The Activity (umolequiv/umol) in series [14] is 1.2. Further, the Ratio IC50 in the series listed under Rattus norvegicus [18] is > 597.

`CCCN(CCC)Cc1cn(-c2cc(NC(=S)NCC)ncn2)cn1.Cl`: the Kp in series [19] was 0.324; in series [21] it was 0.141. In addition, the figures for the concentration at 1 h in series [20], in [22] and in series [23] were 1740 ng/mL, 296 ng/g and 579 ng/g, respectively. Further, in [7], the solubility at 24 h was determined as 3380 µg/mL.

In the case of `C/C=C1\[C@H]2C=C(C)C[C@]1(N)c1ccc(=O)[nH]c1C2` [HUPERZINE A], the IC50 was determined as 82 nM against Acetylcholinesterase and 36.4 µM in series [8]. Besides, the Activity entry in [2] and in series [3] was “Non-Toxic” in each case. Further, in the series listed under Rattus norvegicus [18], the Ratio IC50 stood at 444.
